# Data: patent publication US20260314597A1, “A NOVEL APPROACH TO INTERFERE IN THE PHENYLPROPANOID BIOSYNTHETIC PATHWAY TO REDUCE PINK-RIB DISORDER IN FRESH LETTUCE” (University of Florida Research Foundation, Inc., priority 2022, published 2026)
# Entries after “also recorded” stand apart in the source; their conditions may differ.
# Tests used:
# [1] = tested on: polyphenol oxidase (PPO); assay: PPO activity in treated wounded midribs; type: biochemical, lettuce (iceberg, Romaine); details: 5 d at 5° C.; for PPO activity: L-cysteine 4.1 mM or melatonin 4.3 mM; for effect on PPO activity: iceberg and Romaine
# Text: (§1) In all tests, experimental setup began immediately upon arrival to the laboratory. 90 outer leaves were randomly selected from 18 to 22 lettuce heads that met commercial and damage-free quality standards. A midrib segment (12.5 cm) was excised from the center of each leaf and excess leaf blade tissue was trimmed parallel to the midrib. This procedure was adapted from the wounding procedure of Cantwell (2016). Each midrib was then partially sliced transversally at 1.3-cm increments along the midrib. Midribs (n=15) were immediately immersed for 30 s in one of five treatment solutions: deionized water (wounded control), L-cysteine (4.1 mM), naringenin (1.8 mM) with 20% dimethyl sulfoxide (DMSO), serotonin (2.8 or 5.7 mM) or melatonin (4.3 mM) with 0.50% DMSO. Immediately following immersion, the midribs for each treatment were patted dry using paper towels and placed (n=5) in a breathable, high-density polyethylene bag (n=3) (Narrow Profile Produce Bags [14×18 inches] Model No. S-19156, Uline®, Pleasant Prairie, WI). Unwounded control midribs were stored in the same manner. To allow for direct comparison, each cut site on each midrib was assigned an initial discoloration value on day 1 based on the coloration of the rib. Samples were stored at 5° C. with 95-98% relative humidity (RH) for 5 d, simulating commercial storage.
# PPO activity was prepared and determined as reported by Teng et al. (2019) with slight modifications. Lettuce samples (300 mg) were homogenized in 150% (w/v) chilled phosphate buffer (pH 6.2, 0.05 M). Following chilling of test tubes with samples in an ice bath, samples were centrifuged at 9660×g for 10 min at 4° C. The increase in absorbance was measured every 3 s for 1 min. The slope of the linear portion of the time curve was calculated. One unit (U) of PPO activity was defined as an increase in OD410 of 0.1 unit within 1 min.
# (§2) The imaging data (a* value), enzyme activity (PAL and PPO), and metabolite (chlorogenic acid) results were expressed as mean±standard error and analyzed by lettuce type (iceberg or Romaine). For imaging data, an unpaired t-test was used to identify differences within a treatment throughout storage and among treatment groups at each time point. Treatment groups were defined as wounded, unwounded, L-cysteine, and melatonin. […] Analyses of variance were performed for PAL, PPO, and metabolite analyses using SAS software (version 9.4; SAS Institute, Cary, NC) to identify differences among treatment groups. Differences among treatments groups were separated by Tukey's Honest Significant Difference (HSD) test with a confidence level of 95%. The correlation between visual rating and a* value was evaluated for significance via an F-test, from which the P-value of the correlation was calculated.
# [2] = tested on: iceberg and Romaine lettuce midribs; assay: Objective pink rib severity: a* value by RGB image analysis of cut sites; type: in vivo
# Text: as §1
# Objective evaluations were also made after 1, 3, and 5 d by capturing an image of each wounded midrib using a digital camera (Nikon D5200, Nikon, Melville, NY, USA) under full spectrum LED lighting (Sunco Lighting, Valencia, CA, USA) with 4100 Lumens at a distance of 1.12 m. Only unwounded and treated (L-cysteine or melatonin) midribs from Test 1 were measured using this method. The camera settings were on manual mode ISO400, shutter speed 1/125, aperture 5.6, and no zoom or flash; distance from the tissue was approximately 18 inches. The white balance of the camera was set with a gray card prior to each imaging session. GNU Image Manipulation Program (GIMP, version 2.10.14; The GIMP Project c/o GNOME Foundation, Orinda, CA, USA) was used to isolate pixels from an area 1 mm in width along the length of each cut site. Because a cut site is required as a guide for pixel extraction, no data was collected from images of the unwounded midribs.
# Isolated pixels were converted from the RGB to the L*a*b* color space (Commission Internationale de l'Elcairage) with the “convertColor” function in R version 4.0.0 (R Core Team, 2020), using Illuminant D65 as the white reference. The mean a* value was calculated for each group of isolated cut site pixels at each time point. In the L*a*b* color space, […] the degree of redness (+) or greenness (−); thus, the mean a* at each cut site quantified the severity of pink rib discoloration. R was also applied to subset the data, to ensure that the cut sites chosen for further analysis had similar initial color. The a* values ranged from −3 to 0 for iceberg lettuce and −6 to −3 for Romaine.
# as §2
# [3] = tested on: key enzymes in the melatonin biosynthesis pathway; details: strawberry; cited from earlier work
# [4] = tested on: PAL; details: melatonin; 25 d storage at 4° C.; cited from earlier work
# [5] = tested on: phenylalanine ammonia-lyase (PAL); assay: PAL activity in crude protein extracts of treated wounded midribs; type: biochemical, lettuce (iceberg, Romaine); details: 5 d at 5° C.; for PAL activity: L-cysteine 4.1 mM or melatonin 4.3 mM; for effect on PAL activity: iceberg and Romaine, vs wounded control
# Text: as §1
# PAL activity was measured using a crude protein extraction following a method reported by Kim et al. (2020) with some modifications. Fresh lettuce samples (300 mg) were ground with liquid nitrogen in a pre-chilled mortar and pestle. A 0.1 mM Tris-HCl buffer (pH 8.3) was added at a 1:1 (w:v). The solution was incubated at 4° C. for 1 h and then centrifuged at 4° C., 9660×g for 15 min. Supernatants were collected in chilled tubes. Total protein content was measured using Quick Start Bradford protein assay kit (Bio-Rad, Hercules, CA, USA) and Bovine Serum Albumin (BSA) as a standard (10 mg mL^−1 in deionized water). Protein concentration was calculated based on the absorbance at 595 nm measured with a NanoDrop (One Microvolume UV-Vis Spectrophotometer, Thermo Scientific, Wilmington, DE, USA) and the standard curve. For the PAL activity test, 150 μL aliquots of the protein extract were incubated in a reaction buffer containing 0.1 mM Tris-HCl buffer (pH 8.3), 5 mM dithiothreitol (DTT), and 5 mM phenylalanine. Reaction mixtures were incubated at 37° C. for 90 min and stopped with the addition of 40 μL of 30% acetic acid. Reaction products were extracted with 600 μL of ethyl acetate and then centrifuged at 22° C., 9660×g for 5 min. The supernatant was dried in a speed vac and re-dissolved in 100 μL of 50% methanol. The final extract (10 μL) was analyzed by HPLC using the method previously described in Section 2.4.
# as §2
# [6] = tested on: fresh-cut fennel; details: L-cysteine 0.5% or 41.3 mM; 6 d at 5° C.; cited from earlier work
SMILES,"PPO activity ([1]; Romaine, wounded control 5.1) [U]",effect on PPO activity [1],"PPO activity ([1]; iceberg, wounded control 1.7) [U]","change of a* value ([2]; melatonin 4.3 mM, Romaine, between days 3 and 5)","a* value versus control ([2]; melatonin 4.3 mM, Romaine, day 5, control mean 1.49)","mean a* value ([2]; melatonin 4.3 mM, Romaine, day 5 at 5° C.)","change of a* value ([2]; melatonin 4.3 mM, iceberg, throughout 5 d storage)","a* values versus control treatments, overall ([2]; melatonin, iceberg and Romaine)",key enzymes in the melatonin biosynthesis pathway [3],PAL activity [4],"PAL activity ([5]; Romaine, wounded control 9.56) [pkat mg^−1]",effect on PAL activity [5],"PAL activity ([5]; iceberg, wounded control 6.73) [pkat mg^−1]","change of a* value ([2]; L-cysteine 4.1 mM, Romaine, after 3 d (P=0.0242))","change of a* value ([2]; L-cysteine 4.1 mM, iceberg, after 3 d (P=0.0242))","change of a* value ([2]; L-cysteine 4.1 mM, iceberg, after 5 d (P=0.00059))",effect on browning of fennel [6]
COc1ccc2[nH]cc(CCNC(C)=O)c2c1 [melatonin],6.2,no significant differences in PPO activity; also recorded: no effect on PPO activity; also recorded: neither enzyme activity (PAL or PPO) nor chlorogenic acid concentration were impacted; also recorded: did not significantly affect PAL or PPO enzyme activities,2.6,increasing,no longer significantly different,−0.67,did not increase throughout storage,significantly lower a* values,Upregulation,increased,6.06,no significant reduction in PAL activity; also recorded: neither enzyme activity (PAL or PPO) nor chlorogenic acid concentration were impacted; also recorded: did not significantly affect PAL or PPO enzyme activities,7.44,–,–,–,–
N[C@@H](CS)C(=O)O [L-cysteine],6.4,no significant differences in PPO activity; also recorded: no effect on PPO activity; also recorded: neither PPO activity nor pink rib expression were reduced,2.6,–,–,–,–,–,–,–,11.07,no significant reduction in PAL activity,5.43,increase,increased,increased,no effect; also recorded: ineffective
